# Measurements reported in US9133168B2, “Pyrimidine derivatives, preparation thereof, and pharmaceutical use thereof as akt(pkb) phosphorylation inhibitors” (SANOFI, priority 2010, dated 2015).
# pIC50: −log10 of the molar value.
# Tested on: AKT protein phosphorylated on serine 473 (P-AKT-S473) in PC3 human prostate carcinoma cells
# Experiment: pAKT expression in PC3 human prostate carcinoma cells, MSD Multi-spot Biomarker detection (Test A)
# Format: cell-based
# Details: 1 to 2 h incubation, P-AKT-S473, absolute IC50, mean of two independent experiments
# How it was run: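 Lysate pAKT-S473 measured by electrochemiluminescent sandwich immunoassay; inhibition versus cell-free background and DMSO-only wells, IC50 averaged over two experiments.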
pIC50 (PC3 cells),"pIC50 (Homo sapiens, PC-3, PC3 cells)",Structure (SMILES),further results
–,8.70,"CC1Cc2c(ccc(F)c2Cl)N1C(=O)Cc1nc(N2CCOCC2)c(F)c(=O)[nH]1 (centres unmarked) [Example 34a, 5-Fluoro-2-[2-(4-chloro-5-fluoro-2-methyl-2,3-dihydroindol-1-yl)-2-oxoethyl]-6-morpholin-4-yl-3H-pyrimidin-4-one]",–
9.00,–,"CC1Cc2c(ccc(F)c2F)N1C(=O)Cc1nc(N2CCOCC2)cc(=O)[nH]1 (single isomer, unassigned; (-)) [Example 18c, (−)-2-{2-[4,5-difluoro-2-methyl-2,3-dihydro-1H-indol-1-yl]-2-oxoethyl}-6-(morpholin-4-yl)pyrimidin-4(3H)-one]",–
–,6.30,"C[C@@H]1Cc2ccccc2N1C(=O)Cc1nc(N2CCOCC2)c(F)c(=O)[nH]1 [Example 4a, 5-fluoro-2-{2-[(2R)-2-methyl-2,3-dihydro-1H-indol-1-yl]-2-oxoethyl}-6-(morpholin-4-yl)pyrimidin-4(3H)-one]",–
8.30,–,"CC1Cc2c(cccc2C(F)(F)F)N1C(=O)Cc1nc(N2CCOCC2)cc(=O)[nH]1 (single isomer, unassigned; (+)) [Example 36d, (+)-2-{2-[2-methyl-4-(trifluoromethyl)-2,3-dihydro-1H-indol-1-yl]-2-oxoethyl}-6-(morpholin-4-yl)pyrimidin-4(3H)-one]",–
7.01,–,"CC1Cc2c(ccc(F)c2F)N1C(=O)Cc1nc(N2CCOCC2)c(F)c(=O)n1C (stereo not drawn) [Example 25a, 5-fluoro-2-[2-((+)-4,5-difluoro-2-methyl-2,3-dihydroindol-1-yl)-2-oxoethyl]-3-methyl-6-morpholin-4-yl-3H-pyrimidin-4-one]",–
–,5.94,"O=C(Cc1nc(N2CCOCC2)c(F)c(=O)[nH]1)N1c2ccccc2C[C@@H]1CO [Example 38a, 5-Fluoro-2-[2-((+)-2-hydroxymethyl-2,3-dihydroindol-1-yl)-2-oxoethyl]-6-morpholin-4-yl-3H-pyrimidin-4-one]",–
–,7.80,"CC1Cc2c(Br)cccc2N1C(=O)Cc1nc(N2CCOCC2)c(F)c(=O)n1C (stereo not drawn) [Example 30a, 5-fluoro-2-[2-((+)-4-bromo-2-methyl-2,3-dihydroindol-1-yl)-2-oxoethyl]-3-methyl-6-morpholin-4-yl-3H-pyrimidin-4-one]",–
6.94,–,"CC1Cc2c(O)cccc2N1C(=O)Cc1nc(N2CCOCC2)cc(=O)[nH]1 (single isomer, unassigned; (+)) [Example 9c, (+)-2-{2-[4-hydroxy-2-methyl-2,3-dihydro-1H-indol-1-yl]-2-oxoethyl}-6-(morpholin-4-yl)pyrimidin-4(3H)-one]",–
7.62,–,"CC1Cc2c(O)cccc2N1C(=O)Cc1nc(N2CCOCC2)cc(=O)[nH]1 (centres unmarked) [Example 6c, 2-[2-(4-hydroxy-2-methyl-2,3-dihydro-1H-indol-1-yl)-2-oxoethyl]-6-(morpholin-4-yl)pyrimidin-4(3H)-one]",–
8.70,–,"CC1Cc2c(cccc2C(F)(F)F)N1C(=O)Cc1nc(N2CCOCC2)cc(=O)[nH]1 (single isomer, unassigned; (-)) [Example 37d, (−)-2-{2-[2-methyl-4-(trifluoromethyl)-2,3-dihydro-1H-indol-1-yl]-2-oxoethyl}-6-(morpholin-4-yl)pyrimidin-4(3H)-one]",–
7.82,–,"CC1Cc2c(ccc(F)c2F)N1C(=O)Cc1nc(N2CCOCC2)c(F)c(=O)[nH]1 (stereo not drawn) [Example 21a, 2-[2-((+)-4,5-difluoro-2-methyl-2,3-dihydroindol-1-yl)-2-oxoethyl]-5-fluoro-6-morpholin-4-yl-3H-pyrimidin-4-one]",–
8.70,–,"CC1Cc2cc(F)ccc2N1C(=O)Cc1nc(N2CCOCC2)cc(=O)[nH]1 (single isomer, unassigned; (-)) [Example 14c, (−)-2-{2-[5-fluoro-2-methyl-2,3-dihydro-1H-indol-1-yl]-2-oxoethyl}-6-(morpholin-4-yl)pyrimidin-4(3H)-one]",–
–,7.26,"C[C@@H]1Cc2ccccc2N1C(=O)Cc1nc(N2CCOCC2)c(Cl)c(=O)[nH]1 [Example 36a, 5-chloro-2-[2-((R)-2-methyl-2,3-dihydroindol-1-yl)-2-oxoethyl]-6-morpholin-4-yl-3H-pyrimidin-4-one]",–
7.01,–,"CC1Cc2c(F)cccc2N1C(=O)Cc1nc(N2CCOCC2)c(F)c(=O)n1C (stereo not drawn) [Example 22a, 5-fluoro-2-[2-((+)-4-fluoro-2-methyl-2,3-dihydroindol-1-yl)-2-oxoethyl]-3-methyl-6-morpholin-4-yl-3H-pyrimidin-4-one]",–

# Further lines, the compound ahead of its results:
Structure (SMILES),pIC50 (PC3 cells),"pIC50 (Homo sapiens, PC-3, PC3 cells)",further results
"CC1CN(c2cc(=O)[nH]c(CC(=O)N3CCc4c(F)cccc43)n2)CCO1 (centres unmarked) [Example 8b, 2-[2-(4-fluoro-2,3-dihydroindol-1-yl)-2-oxoethyl]-6-(2-methylmorpholin-4-yl)-3H-pyrimidin-4-one]",7.74,–,–
"CC(C(=O)N1CCc2c(F)cccc21)c1nc(N2CCOCC2)cc(=O)[nH]1 (centres unmarked) [Example 41c, 2-[1-(4-fluoro-2,3-dihydro-1H-indol-1-yl)-1-oxopropan-2-yl]-6-(morpholin-4-yl)pyrimidin-4(3H)-one]",–,7.54,–
"CC1Cc2c(Br)cccc2N1C(=O)Cc1nc(N2CCOCC2)cc(=O)n1C (single isomer, unassigned; (-)) [Example 32c, (−)-2-{2-[4-bromo-2-methyl-2,3-dihydro-1H-indol-1-yl]-2-oxoethyl}-3-methyl-6-(morpholin-4-yl)pyrimidin-4(3H)-one]",7.85,–,–
"CC1Cc2c(O)cccc2N1C(=O)Cc1nc(N2CCOCC2)cc(=O)[nH]1 (single isomer, unassigned; (-)) [Example 10c, (−)-2-{2-[4-hydroxy-2-methyl-2,3-dihydro-1H-indol-1-yl]-2-oxoethyl}-6-(morpholin-4-yl)pyrimidin-4(3H)-one]",7.66,–,–
"O=C(Cc1nc(N2CCOCC2)cc(=O)[nH]1)N1c2ccccc2CC1c1ccc(F)cc1 (single isomer, unassigned; (+)) [Example 27d, (+)-2-{2-[2-(4-fluorophenyl)-2,3-dihydro-1H-indol-1-yl]-2-oxoethyl}-6-(morpholin-4-yl)pyrimidin-4(3H)-one]",–,–,"pIC50 (PC3 cells, listed as 27): 6.36"
"COc1cc(-c2cc(=O)[nH]c(CC(=O)N3CCc4c(F)cccc43)n2)ccn1 [Example 13b, 2-[2-(4-fluoro-2,3-dihydroindol-1-yl)-2-oxoethyl]-6-(2-methoxypyridin-4-yl)-3H-pyrimidin-4-one]",–,5.52,–
"C[C@H]1Cc2ccccc2N1C(=O)Cc1nc(N2CCOCC2)cc(=S)[nH]1 [Example 1e, 1-((S)-2-methyl-2,3-dihydroindol-1-yl)-2-(4-morpholin-4-yl-6-thioxo-1,6-dihydropyrimidin-2-yl)ethanone]",–,7.66,–
"CC1Cc2c(Br)cccc2N1C(=O)Cc1nc(N2CCOCC2)cc(=O)[nH]1 (single isomer, unassigned; (+)) [Example 25c, (+)-2-{2-[4-bromo-2-methyl-2,3-dihydro-1H-indol-1-yl]-2-oxoethyl}-6-(morpholin-4-yl)pyrimidin-4(3H)-one]",7.41,–,–
"O=C(Cc1nc(N2CCOC(CF)C2)cc(=O)[nH]1)Nc1ccc(F)cc1 (centres unmarked) [Example 3b, 2-[4-(2-fluoromethylmorpholin-4-yl)-6-oxo-1,6-dihydropyrimidin-2-yl]-N-(4-fluorophenyl)acetamide]",6.57,–,–
"CN1CCN(c2cccc3c2CCN3C(=O)Cc2nc(N3CCOCC3)cc(=O)[nH]2)CC1 [Example 26d, 2-{2-[4-(4-methylpiperazin-1-yl)-2,3-dihydro-1H-indol-1-yl]-2-oxoethyl}-6-(morpholin-4-yl)pyrimidin-4(3H)-one]",–,6.78,–
"CC1Cc2c(OC(F)F)cccc2N1C(=O)Cc1nc(N2CCOCC2)cc(=O)n1C (single isomer, unassigned; (-)) [Example 32d, (−)-2-{2-[4-(difluoromethoxy)-2-methyl-2,3-dihydro-1H-indol-1-yl]-2-oxoethyl}-3-methyl-6-(morpholin-4-yl)pyrimidin-4(3H)-one]",7.22,–,–
"Cn1c(CC(=O)N2CCc3c(F)cccc32)nc(N2CCOCC2)c(F)c1=O [Example 3a, 5-fluoro-2-[2-(4-fluoro-2,3-dihydro-1H-indol-1-yl)-2-oxoethyl]-3-methyl-6-(morpholin-4-yl)pyrimidin-4(3H)-one]",–,6.80,–
"CC1Cc2ccc(F)cc2N1C(=O)Cc1nc(N2CCOCC2)cc(=O)[nH]1 (stereo not drawn) [Example 35c, 2-{2-[(+)-6-fluoro-2-methyl-2,3-dihydro-1H-indol-1-yl]-2-oxoethyl}-6-(morpholin-4-yl)pyrimidin-4(3H)-one]",7.57,–,–
"O=C(Cc1nc(N2CCOCC2)cc(=O)[nH]1)N1CCc2c(N3CCOCC3)cccc21 [Example 33d, 6-(morpholin-4-yl)-2-{2-[4-(morpholin-4-yl)-2,3-dihydro-1H-indol-1-yl]-2-oxoethyl}pyrimidin-4(3H)-one]",–,6.95,–
"CC1(C)CN(C(=O)Cc2nc(N3CCOCC3)cc(=O)[nH]2)c2cccc(Cl)c21 [Example 5c, 2-[2-(4-chloro-3,3-dimethyl-2,3-dihydro-1H-indol-1-yl)-2-oxoethyl]-6-(morpholin-4-yl)pyrimidin-4(3H)-one]",–,7.85,–
"Cn1c(CC(=O)N2CC(C)(C)c3c(F)cccc32)nc(N2CCOCC2)cc1=O [Example 7c, 2-[2-(4-fluoro-3,3-dimethyl-2,3-dihydro-1H-indol-1-yl)-2-oxoethyl]-3-methyl-6-(morpholin-4-yl)pyrimidin-4(3H)-one]",–,7.35,–
"CC1Cc2c(OC(F)F)cccc2N1C(=O)Cc1nc(N2CCOCC2)cc(=O)[nH]1 (single isomer, unassigned; (+)) [Example 29d, (+)-2-{2-[4-(difluoromethoxy)-2-methyl-2,3-dihydro-1H-indol-1-yl]-2-oxoethyl}-6-(morpholin-4-yl)pyrimidin-4(3H)-one]",7.48,–,–
"CC1Cc2ccc(F)cc2N1C(=O)Cc1nc(N2CCOCC2)cc(=O)[nH]1 (stereo not drawn) [Example 36c, 2-{2-[(−)-6-fluoro-2-methyl-2,3-dihydro-1H-indol-1-yl]-2-oxoethyl}-6-(morpholin-4-yl)pyrimidin-4(3H)-one]",8.05,–,–
